From patent US10525133B2, “Aqueous composition comprising at least one protein and one solubilizing agent, preparation thereof and uses thereof” (ADOCIA, priority 2014, dated 2020)

Legend:
[1] = system: Nanogam (human immunoglobulins); assay: Reduction in aggregation of Nanogam at its isoelectric point (light scattering at 12.8°, Malvern NanoZS); format: physicochemical; conditions: 40 mg/ml human immunoglobulins, pH 8.5 (pI), relative to Nanogam at pH 4.3
Method: The Nanogam formulation is a formulation of human immunoglobulins at 50 mg/ml and at pH 4.3 containing various IgG subclasses (IgG1: 54-70%, IgG2: 29-45%, IgG3: 1-4%, IgG4: 0-0.5%, IgA: at most 6 μg/ml). […] A test with various compounds is therefore carried out at the isoelectric point in order to identify the compounds which make it possible to reduce this aggregation phenomenon.
A commercial solution of Nanogam at 50 mg/ml is used. […] Mixing between the solution of Nanogam and one of the solutions of compound is carried out in order to obtain a solution containing 40 mg/ml of human immunoglobulins and the desired concentration of compound. The pH of the various solutions is adjusted to pH 8.5 by adding hydrochloric acid or sodium hydroxide depending on the pH achieved following the mixing between the compound of interest and the solution of human immunoglobulins.
The mixtures are then analyzed by light scattering on a Malvern NanoZS instrument.
The scattered intensities are measured at 12.8°.

human insulin = biological target: T1, human insulin (Homo sapiens, UniProt P01308); assay: Solubilization of human insulin at its isoelectric point (visual appearance, soluble fraction by RP-HPLC); format: physicochemical; design: key to Visual appearance: Cloudy: If the solution is cloudy, the compound at the concentration tested does not allow total solubilization of human insulin at its isoelectric point; Clear: If the solution is clear, the compound allows total solubilization of human insulin at the concentration tested; conditions: 100 IU/ml human insulin, pH 5.3 (pI)
T1 construct: A solution of human insulin at 500 IU/ml is prepared
T1 sequence (P01308 25-54 limits assumed): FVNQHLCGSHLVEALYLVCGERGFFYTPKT
T1 sequence (P01308 90-110 limits assumed): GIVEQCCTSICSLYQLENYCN
Method: Human insulin has an isoelectric point (pI) of 5.3. […] A test of solubility at the pI of human insulin with various compounds is carried out. […] Solutions of compounds at various concentrations in water are prepared as described in examples B1 to B4. […] The pH of the various solutions is adjusted to pH 5.3 by adding hydrochloric acid or sodium hydroxide depending on the pH achieved following the mixing between the compound and the solution of human insulin. The appearance of the solution is documented. […] If the solution is clear, the compound allows total solubilization of human insulin at the concentration tested. In addition, the mixtures are centrifuged at 4000 rpm for 10 minutes in a Hereaus Biofuge Pico centrifuge (Rotor #3328) and then filtered through 0.22 μm in order to remove the precipitate. The resulting soluble fractions are then assayed by RP-HPLC (column: Sunfire C18, Waters ref:186003417; mobile phase: sodium phosphate/acetonitrile gradient; detection: UV at 276 nm) with an external insulin range in order to quantify the percentage of soluble insulin at the pI.

[2] = at pH 5.3 (pI); cited from earlier work
[3] = compound 300 mmol/l, molar ratio compound/insulin 500
[4] = compound 180 mmol/l, molar ratio compound/Nanogam 675
[5] = compound 75 mmol/l, molar ratio compound/insulin 125
[6] = compound 750 mmol/l, molar ratio compound/insulin 1250
[7] = compound 120 mmol/l, molar ratio compound/insulin 200
[8] = compound 150 mmol/l, molar ratio compound/insulin 250

## O=C(CO)N[C@@H](Cc1ccccc1)C(=O)O [Molecule A1, N-(2-hydroxyacetyl)-L-phenylalanine]
[1]; compound 85 mmol/l, molar ratio compound/Nanogam 320
  Iscat 12.8° standardized: 23.5
Human insulin; [3]
  Soluble insulin recovery (%): 100%
  Visual appearance: Clear

## O=C(O)Cc1ccccc1 [Phenylacetic acid]
[1]; [4]
  Iscat 12.8° standardized: 20.082

## Human insulin control: Human insulin at 100 IU/ml, pH 5.3, without solubilizing compound
[2]
  Concentration at which human insulin precipitates: greater than or equal to 10 IU/ml
Human insulin; control without compound
  Soluble insulin recovery (%): 11%
  Visual appearance: Cloudy

## N[C@@H](Cc1c[nH]cn1)C(=O)O [Histidine, L-histidine, reference compound]
[1]; compound 40 mmol/l, molar ratio compound/Nanogam 150
  Iscat 12.8° standardized: 80.82
Human insulin; [5]
  Soluble insulin recovery (%): 48%
  Visual appearance: Cloudy

## O=C(O)C(O)c1ccccc1 (stereo not drawn) [Mandelic acid]
[1]; compound 27.5 mmol/l, molar ratio compound/Nanogam 675
  Iscat 12.8° standardized: 22.15
Human insulin; [6]
  Soluble insulin recovery (%): 100%
  Visual appearance: Clear

## CC(Oc1ccccc1)C(=O)O (stereo not drawn) [2-Phenoxypropionic acid]
[1]; [4]
  Iscat 12.8° standardized: 6.38

## CC(=O)O [Acetic acid, reference compound]
[1]; [4]
  Iscat 12.8° standardized: 200.18

## O=C(CO)N[C@@H](Cc1c[nH]c2ccccc12)C(=O)O [Molecule A2, N-(2-hydroxyacetyl)-L-tryptophan]
Human insulin; [7]
  Soluble insulin recovery (%): 100%
  Visual appearance: Clear

## OC[C@H]1O[C@@](CO)(O[C@H]2O[C@H](CO)[C@@H](O)[C@H](O)[C@H]2O)[C@@H](O)[C@@H]1O [Sucrose, reference compound]
Human insulin; [8]
  Soluble insulin recovery (%): 67%
  Visual appearance: Cloudy
Human insulin; [3]
  Soluble insulin recovery (%): 35%
  Visual appearance: Cloudy
